Source: patent publication US8207156B2, “Substituted pyrazoline compounds, their preparation and use as medicaments” (Laboratorios Del Dr. Esteve, S.A., priority 2005, dated 2012)

target: recombinant human cannabinoid 1 receptor (CB1) (Homo sapiens, UniProt P21554); test: In vitro determination of antagonism to CB1-receptor ([35S]GTPγS binding assay, CHO cell membranes); format: biochemical; conditions: compound at 1 μM against agonist WIN 55,212-2 (3 nM to 3 μM); effect of Rimonabant (1 μM) defined as 100%
Sequence (P21554 whole entry): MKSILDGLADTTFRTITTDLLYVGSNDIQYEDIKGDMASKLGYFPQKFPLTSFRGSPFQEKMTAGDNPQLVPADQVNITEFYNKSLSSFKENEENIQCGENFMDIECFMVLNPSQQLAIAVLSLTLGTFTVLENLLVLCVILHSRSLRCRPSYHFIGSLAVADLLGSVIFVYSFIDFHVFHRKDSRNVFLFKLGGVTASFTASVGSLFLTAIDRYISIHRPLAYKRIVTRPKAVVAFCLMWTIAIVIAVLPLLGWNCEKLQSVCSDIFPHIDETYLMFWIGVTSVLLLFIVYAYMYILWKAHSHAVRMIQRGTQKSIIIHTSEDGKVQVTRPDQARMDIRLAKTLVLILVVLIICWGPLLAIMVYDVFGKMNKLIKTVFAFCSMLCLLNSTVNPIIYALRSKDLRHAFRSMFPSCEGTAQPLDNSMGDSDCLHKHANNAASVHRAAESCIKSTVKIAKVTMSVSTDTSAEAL
Procedure: Chinese hamster ovary (CHO) cells stably expressing recombinant human cannabinoid 1 receptor (CB1) were cultured in nutrient mixture Ham's F 12 supplemented with 10% heat-inactivated fetal bovine serum, 2 mM L-glutamine, 50 U/ml penicillin, 50 U/ml streptomycin and 0.5 mg/ml geneticin. In order to obtain cells, culture flasks were washed twice with phosphate buffered saline and scraped. Then, cells were collected by centrifugation (200×g, 10 min) and stored dry at −80° C. Cells were homogenized in ice-cold 20 mM HEPES, 10 mM EDTA (pH 7.5) and centrifuged at 40,000×g for 15 min at 4° C. The membrane pellet was resuspended in 20 mM HEPES, 0.1 mM EDTA (pH 7.5) and centrifuged for 15 min at 4° C. The final membrane pellet was resuspended in 20 mM HEPES, 0.1 mM EDTA (pH 7.5), and divided in aliquots and stored at −80° C. until use.
The reaction was performed in 96-well plates. Membranes (15 μg protein/well) were incubated for 60 min at 30° C. in buffer (50 mM HEPES, 100 mM KCl, 5 mM MgCl2,1 mM EDTA, 0.1% wt/vol bovine serum albumin, 5 μM GDP, saponin (10 μg/ml), 0.5 nM [^35S]GTPγS, pH 7.4) with compound at a final concentration of 1 μM in either the absence or presence of agonist WIN 55, 212-2 between 3 nM and 3 μM. The incubation was terminated by rapid filtration through Millipore Multiscreen glass fiber FB, and rinsed two-times with ice-cold assay buffer. Filter plates were dried and 30 μl of scintillation liquid was added. Radioactivity was determined using a Wallac Microbeta Trilux. Each experiment was performed at least in duplicate. A WIN 55, 212-2 dose-response experiment either alone or in the presence of Rimonabant (1 μM) was systematically performed.
The average of basal [^35S]GTPγS binding was subtracted from all binding data. In order to compare the antagonism results from one screening campaign to another one, the difference between the maximal agonist effect of WIN 55, 212-2 alone, and the maximal antagonism effect due to WIN 55, 212-2 plus Rimonabant (1 μM) was defined as 100%.

Antagonism [%] | Compound
53 | Cl.O=C(NN1CCOCC1)C1=NN(c2ccc(Cl)cc2Cl)C(c2ccc(Cl)cc2)C1 (stereo not shown) [Example 9, 5-(4-Chloro-phenyl)-1-(2,4-dichloro-phenyl)-4,5-dihydro-1H-pyrazole-3-carboxylic acid morpholin-4-ylamide hydrochloride]
119 | O=C(NN1CC2CCCC2C1)C1=NN(c2ccc(Cl)cc2Cl)C(c2ccc(Cl)cc2)C1 (stereo not shown) [Example 10, 5-(4-Chloro-phenyl)-1-(2,4-dichloro-phenyl)-4,5-dihydro-1H-pyrazole-3-carboxylic acid (hexahydro-cyclopenta[c]pyrrol-2-yl)-amide]
65 | CC1CCC(NC(=O)C2=NN(c3ccc(Cl)cc3Cl)C(c3ccc(Cl)cc3)C2)CC1 (stereo not shown) [Example 17, 5-(4-Chloro-phenyl)-1-(2,4-dichloro-phenyl)-4,5-dihydro-1H-pyrazole-3-carboxylic acid (4-methyl-cyclohexyl)-amide]
66 | O=C(C1=NN(c2ccc(Cl)cc2Cl)C(c2ccc(Cl)cc2)C1)N1CCN(C2CCCCC2)CC1 (stereo not shown) [Example 21, [5-(4-Chloro-phenyl)-1-(2,4-dichloro-phenyl)-4,5-dihydro-1H-pyrazol-3-yl]-(4-cyclohexyl-piperazin-1-yl)-methanone]
27 | O=C(NN1C(=O)c2cccc3cccc(c23)C1=O)C1=NN(c2ccc(Cl)cc2Cl)C(c2ccc(Cl)cc2)C1 (stereo not shown) [Example 24, 5-(4-Chloro-phenyl)-1-(2,4-dichloro-phenyl)-4,5-dihydro-1H-pyrazole-3-carboxylic acid (1,3-dioxo-1H,3H-benzo[de]isoquinolin-2-yl)-amide]
7 | O=C(NN1Cc2cccc3cccc(c23)C1)C1=NN(c2ccc(Cl)cc2Cl)C(c2ccc(Cl)cc2)C1 (stereo not shown) [Example 25, 5-(4-Chloro-phenyl)-1-(2,4-dichloro-phenyl)-4,5-dihydro-1H-pyrazole-3-carboxylic acid (1H,3H-benzo[de]isoquinolin-2-yl)-amide]
52 | O=C(NN1CCN(C2CCCC2)CC1)C1=NN(c2ccc(Cl)cc2Cl)C(c2ccc(Cl)cc2)C1 (stereo not shown) [Example 26, 5-(4-Chloro-phenyl)-1-(2,4-dichloro-phenyl)-4,5-dihydro-1H-pyrazole-3-carboxylic acid (4-cyclopentyl-piperazin-1-yl)-amide]
63 | O=C(NN1CCc2ccccc21)C1=NN(c2ccc(Cl)cc2Cl)C(c2ccc(Cl)cc2)C1 (stereo not shown) [Example 28, 5-(4-Chloro-phenyl)-1-(2,4-dichloro-phenyl)-4,5-dihydro-1H-pyrazole-3-carboxylic acid (2,3-dihydro-indol-1-yl)-amide]
54 | O=C(NC1CCC1)C1=NN(c2ccc(Cl)cc2Cl)C(c2ccc(Cl)cc2)C1 (stereo not shown) [Example 30, 5-(4-Chloro-phenyl)-1-(2,4-dichloro-phenyl)-4,5-dihydro-1H-pyrazole-3-carboxylic acid cyclobutylamide]
2 | CCN(C(=O)C1=NN(c2ccc(Cl)cc2Cl)C(c2ccc(Cl)cc2)C1)C1CCCCC1 (stereo not shown) [Example 33, 5-(4-Chloro-phenyl)-1-(2,4-dichloro-phenyl)-4,5-dihydro-1H-pyrazole-3-carboxylic acid cyclohexyl-ethyl-amide]
60 | O=C(NC1CCCCCCC1)C1=NN(c2ccc(Cl)cc2Cl)C(c2ccc(Cl)cc2)C1 (stereo not shown) [Example 34, 5-(4-Chloro-phenyl)-1-(2,4-dichloro-phenyl)-4,5-dihydro-1H-pyrazole-3-carboxylic acid cyclooctylamide]
−5 | O=C(NC1CC1)C1=NN(c2ccc(Cl)cc2Cl)C(c2ccc(Cl)cc2)C1 (stereo not shown) [Example 36, 5-(4-Chloro-phenyl)-1-(2,4-dichloro-phenyl)-4,5-dihydro-1H-pyrazole-3-carboxylic acid cyclopropylamide]
45 | O=C(C1=NN(c2ccc(Cl)cc2Cl)C(c2ccc(Cl)cc2)C1)N1CCCCCCC1 (stereo not shown) [Example 38, Azocan-1-yl-[5-(4-chloro-phenyl)-1-(2,4-dichloro-phenyl)-4,5-dihydro-1H-pyrazol-3-yl]-methanone]
62 | O=C(C1=NN(c2ccc(Cl)cc2Cl)C(c2ccc(Cl)cc2)C1)N1Cc2ccccc2C1 (stereo not shown) [Example 39, [5-(4-Chloro-phenyl)-1-(2,4-dichloro-phenyl)-4,5-dihydro-1H-pyrazol-3-yl]-(1,3-dihydro-isoindol-2-yl)-methanone]
−13 | O=C(C1=NN(c2ccc(Cl)cc2Cl)C(c2ccc(Cl)cc2)C1)N1CCC(N2CCCCC2)CC1 (stereo not shown) [Example 42, [1,4′]Bipiperidinyl-1′-yl-[5-(4-chloro-phenyl)-1-(2,4-dichloro-phenyl)-4,5-dihydro-1H-pyrazol-3-yl]-methanone]
25 | CN1CCN(C(=O)C2=NN(c3ccc(Cl)cc3Cl)C(c3ccc(Cl)cc3)C2)CC1 (stereo not shown) [Example 43, [5-(4-Chloro-phenyl)-1-(2,4-dichloro-phenyl)-4,5-dihydro-1H-pyrazol-3-yl]-(4-methyl-piperazin-1-yl)-methanone]
39 | CCOC(=O)N1CCN(C(=O)C2=NN(c3ccc(Cl)cc3Cl)C(c3ccc(Cl)cc3)C2)CC1 (stereo not shown) [Example 44, 4-[5-(4-Chloro-phenyl)-1-(2,4-dichloro-phenyl)-4,5-dihydro-1H-pyrazole-3-carbonyl]-piperazine-1-carboxylic acid ethyl ester]
28 | CN(C(=O)C1=NN(c2ccc(Cl)cc2Cl)C(c2ccc(Cl)cc2)C1)C1CCCCC1 (stereo not shown) [Example 47, 5-(4-Chloro-phenyl)-1-(2,4-dichloro-phenyl)-4,5-dihydro-1H-pyrazole-3-carboxylic acid cyclohexyl-methyl-amide]
14 | O=C(O)[C@@H]1CCCN1C(=O)C1=NN(c2ccc(Cl)cc2Cl)C(c2ccc(Cl)cc2)C1 (stereo partly shown) [Example 53, 1-[5-(4-Chloro-phenyl)-1-(2,4-dichloro-phenyl)-4,5-dihydro-1H-pyrazole-3-carbonyl]-pyrrolidine-2-carboxylic acid]

Compound | Antagonism [%]
COC(C)(C)[C@@H]1CCCN1NC(=O)C1=NN(c2ccc(Cl)cc2Cl)C(c2ccc(Cl)cc2)C1 (stereo partly shown) [Example 15, 5-(4-Chloro-phenyl)-1-(2,4-dichloro-phenyl)-4,5-dihydro-1H-pyrazole-3-carboxylic acid [2-(1-methoxy-1-methyl-ethyl)-pyrrolidin-1-yl]-amide] | 6
CCCCCCNC(=O)C1=NN(c2ccc(Cl)cc2Cl)C(c2ccc(Cl)cc2)C1 (stereo not shown) [Example 20, 5-(4-Chloro-phenyl)-1-(2,4-dichloro-phenyl)-4,5-dihydro-1H-pyrazole-3-carboxylic acid hexylamide] | 61
CCCCCC(C)NC(=O)C1=NN(c2ccc(Cl)cc2Cl)C(c2ccc(Cl)cc2)C1 (stereo not shown) [Example 35, 5-(4-Chloro-phenyl)-1-(2,4-dichloro-phenyl)-4,5-dihydro-1H-pyrazole-3-carboxylic acid (1-methyl-hexyl)-amide] | 68
O=C(C1=NN(c2ccc(Cl)cc2Cl)C(c2ccc(Cl)cc2)C1)N1CCC1 (stereo not shown) [Example 40, Azetidin-1-yl-[5-(4-chloro-phenyl)-1-(2,4-dichloro-phenyl)-4,5-dihydro-1H-pyrazol-3-yl]-methanone] | 32
O=C(C1=NN(c2ccc(Cl)cc2Cl)C(c2ccc(Cl)cc2)C1)N1CCc2ccccc2C1 (stereo not shown) [Example 45, [5-(4-Chloro-phenyl)-1-(2,4-dichloro-phenyl)-4,5-dihydro-1H-pyrazol-3-yl]-(3,4-dihydro-1H-isoquinolin-2-yl)-methanone] | 59
CC1CCCCN1C(=O)C1=NN(c2ccc(Cl)cc2Cl)C(c2ccc(Cl)cc2)C1 (stereo not shown) [Example 46, [5-(4-Chloro-phenyl)-1-(2,4-dichloro-phenyl)-4,5-dihydro-1H-pyrazol-3-yl]-(2-methyl-piperidin-1-yl)-methanone] | 53
O=C(NC1CCCCCCCCCCC1)C1=NN(c2ccc(Cl)cc2Cl)C(c2ccc(Cl)cc2)C1 (stereo not shown) [Example 49, 5-(4-Chloro-phenyl)-1-(2,4-dichloro-phenyl)-4,5-dihydro-1H-pyrazole-3-carboxylic acid cyclododecylamide] | 14
CC(C)N(C(=O)C1=NN(c2ccc(Cl)cc2Cl)C(c2ccc(Cl)cc2)C1)C(C)C (stereo not shown) [Example 50, 5-(4-Chloro-phenyl)-1-(2,4-dichloro-phenyl)-4,5-dihydro-1H-pyrazole-3-carboxylic acid diisopropylamide] | 18
CN(C)C(=O)C1=NN(c2ccc(Cl)cc2Cl)C(c2ccc(Cl)cc2)C1 (stereo not shown) [Example 51, 5-(4-Chloro-phenyl)-1-(2,4-dichloro-phenyl)-4,5-dihydro-1H-pyrazole-3-carboxylic acid dimethylamide] | 21
